“Also recorded” adds a separate entry of the source. Where two headings read alike, the source gives them in different places.
Key:
[1] = biological target: bovine serum albumin (BSA) (Bos taurus, UniProt P02769); test: Titration of fluorescent dye with bovine serum albumin (BSA); type: binding; conditions: for wavelength of maximal emission intensity: FIG. 1a/1b
Description: (§1) In a preferred embodiment of the invention, the assay for identifying lipid binding sites of proteins using the compounds according to formula I as defined above, comprises the steps of • a) dissolving a compound according to formula I as defined above in an aqueous solvent, • b) adding the protein to be tested for containing a lipid binding site, preferably in various concentrations, • c) measuring the intensity of fluorescence emission at the wavelength of maximal emission of the fluorescent dye.
(§2) The fluorescent dye will bind to any lipid-binding site of the protein, and the resulting increase in the hydrophobicity surrounding of the dye will result in an increase in the intensity of the fluorescence and a shift in the emission to a shorter wavelength. The emission-wavelength of a compound according to formula I in a hydrophobic surrounding can be determined in a non-aqueous solution such as methanol.
(§3) For determining the submaximal concentration of dye binding to the protein, the latter was titrated until no further fluorescence increase at 620 nm could be detected.

[2] = biological target: T1, peroxisomal matrix protein (SCP2) (Homo sapiens, UniProt P22307); test: Titration of fluorescent dye with peroxisomal matrix protein (SCP2); type: binding; conditions: dye 250 nM, FIG. 2b
T1 sequence (P22307 1-143 isoform P22307-2): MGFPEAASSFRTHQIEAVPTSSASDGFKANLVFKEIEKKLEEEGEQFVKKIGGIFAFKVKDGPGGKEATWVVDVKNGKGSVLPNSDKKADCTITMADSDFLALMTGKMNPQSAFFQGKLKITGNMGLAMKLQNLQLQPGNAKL
Description: as §1, §2, §3

[3] = Water solubility; type: physicochemical
[4] = Excitation and emission values of the fluorescent dyes in solvent; type: physicochemical; conditions: for Emission / Excitation: measured in methanol
Description: Some exemplary fluorescent dyes according to the invention together with values for excitation and emission are included in table 1. […] The excitation and emission values of the fluorescent dyes were measured in methanol, which simulates a protein-environment, thus yielding a shift of the emission to shorter wavelengths. For comparison, excitation and emission values for compound 10 were also measured in HEPES buffer (i.e. under initial, aqueous assay conditions). In this aqueous environment, the excitation is 620 nm and the emission is 688 nm compared to an emission at 662 nm in methanol.
as §2

[5] = biological target: cytochrome c (Homo sapiens, UniProt P99999); conditions: whole cells; cited from earlier work
cytochrome c, sequence (P99999 whole entry, species assumed): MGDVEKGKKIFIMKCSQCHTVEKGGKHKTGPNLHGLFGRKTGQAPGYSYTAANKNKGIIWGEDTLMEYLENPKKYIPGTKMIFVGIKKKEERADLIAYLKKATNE

[6] = biological target: BSA (Bos taurus, UniProt P02769)
BSA, sequence (P02769 25-607): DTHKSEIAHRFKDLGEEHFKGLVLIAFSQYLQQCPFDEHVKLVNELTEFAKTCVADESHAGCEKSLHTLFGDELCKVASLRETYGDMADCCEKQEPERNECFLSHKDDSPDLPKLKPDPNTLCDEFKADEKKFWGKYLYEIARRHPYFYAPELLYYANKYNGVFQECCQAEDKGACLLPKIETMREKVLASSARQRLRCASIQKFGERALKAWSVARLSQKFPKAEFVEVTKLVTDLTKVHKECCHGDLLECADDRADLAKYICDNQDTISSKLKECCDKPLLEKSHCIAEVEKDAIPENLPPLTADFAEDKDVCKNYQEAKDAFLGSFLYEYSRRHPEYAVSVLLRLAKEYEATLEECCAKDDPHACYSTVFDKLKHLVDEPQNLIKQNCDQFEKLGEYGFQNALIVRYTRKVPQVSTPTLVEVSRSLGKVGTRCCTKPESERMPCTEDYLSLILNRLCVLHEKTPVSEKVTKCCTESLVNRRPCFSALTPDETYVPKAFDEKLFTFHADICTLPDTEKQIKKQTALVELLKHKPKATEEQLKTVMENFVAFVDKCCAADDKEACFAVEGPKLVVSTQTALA
Description: Depending on the strength of the binding of the ligand to the lipid binding site of the protein, the ligand releases the fluorescent dye from the hydrophobic lipid binding site. This can be measured by a decrease of the intensity of fluorescence at the emission wavelength of the dye in hydrophobic surrounding, as imitated by dissolving the dye in methanol.
Increasing concentrations of lipid or drug were added to replace the dye in a dose-dependent fashion. Fluorescence values at 620 nm were corrected for basal fluorescence at 620 nm prior to protein addition as well as for dilution effects from adding increasing ligand concentrations. The starting fluorescence value minus the value at a given ligand concentration was plotted as % replacement.

bovine serum albumin (BSA), sequence (P02769 25-607): as above

SMILES	Emission [4] [nm]	Excitation [4] [nm]	other results
CCN(CC)c1ccc2nc3c4cc(O)ccc4c(=O)c(Br)c-3oc2c1 [compound 2]	640	550	–
CCN(CC)c1ccc2nc3c4cc(O)ccc4c(=O)c(Cl)c-3oc2c1 [compound 3]	643	549	–
CCN(CC)c1ccc2nc3c4ccccc4c(=O)cc-3oc2c1 [nile red]	–	–	quenching of fluorescence by cytochrome c [5]: strong quenching effect
CCN(CC)c1ccc2nc3c4cc(O)ccc4c(=O)cc-3oc2c1 [compound 1]	629	540	–
N[C@@H](Cc1c[nH]c2ccccc12)C(=O)O [tryptophan]	–	–	release of dye from BSA ([6]; 2BrNR 250 nM, 5.54 μM BSA, 282.62 μM ligand, FIG. 5a): not able to release all the dye from BSA; release of dye from BSA ([6]; NRBA, 2 μM BSA, 1 mM ligand, FIG. 5b): not able to release all the dye from BSA; lipid binding sites of albumin occupied / dye molecules replaced ([6]; replacement of NRBA from 2 μM BSA, FIG. 4/5b): only replaced one molecule of the dye; also recorded: occupation of one binding site

Second part, led by results:

Emission [4] [nm]	Excitation [4] [nm]	SMILES	other results
631	544	CCN(CC)c1ccc2nc3c4cc(OCCCC(=O)O)ccc4c(=O)cc-3oc2c1 [compound 11, nile red butyric acid]	change of fluorescence on titration with BSA ([1]; FIG. 1a (dye 0.25 μM) / FIG. 1b (dye 3 μM)): shift in the emission to a shorter wavelength and an increase in the intensity of the fluorescence; binding of BSA to dye compared with SCP2 and MAO B ([1]; dye 250 nM, FIG. 2b): strongest binding; wavelength of maximal emission intensity ([1]; in the absence of BSA): 657 nm; wavelength of maximal emission intensity ([1]; in the presence of BSA): 620 nm; binding of SCP2 to dye compared with BSA and MAO B [2]: weakest; water solubility [3]: increased water solubility
650	552	CCN(CC)c1ccc2nc3c4ccc(O)cc4c(=O)c(Br)c-3oc2c1 [compound 4, 6-Bromo-9-diethylamino-3-hydroxy-benzo[a]phenoxazin-5-one]	–
665	580	CCN(CC)c1cc(C)c2nc3c4ccc(O)cc4c(=O)cc-3sc2c1 [compound 6, 9-Diethylamino-3-hydroxy-11-methyl-benzo[a]phenothiazin-5-one]	–
664	585	CCCCOc1ccc2c3nc4c(C)cc(N(CC)CC)cc4sc-3cc(=O)c2c1 [compound 7]	Quantum Yield [4]: 0.29
650	556	CCCCOc1ccc2c3nc4ccc(N(CC)CC)cc4oc-3c(Br)c(=O)c2c1 [compound 8]	Quantum Yield [4]: 0.35
653	562	CCN(CC)c1ccc2nc3c4ccc(O)c(Br)c4c(=O)c(Br)c-3oc2c1 [compound 5, 4,6-Dibromo-9-diethylamino-3-hydroxy-benzo[a]phenoxazin-5-one]	–
